Patent US10213449B2, “Compositions and methods for treating medulloblastoma” (The Board of Trustees of the Leland Stanford Junior …, priority 2016, dated 2019)
“Also recorded” adds a separate entry of the source.

How the values were obtained:
[1] = test system: Hh signaling in NIH 3T3 cells exposed to Shh; assay: RT-qPCR of Hh target transcripts in Shh-stimulated NIH 3T3 cells; type: cell-based, mouse
Procedure: NIH3T3s or SUFU−/− MEFs were plated in 6 well plates at 400,000 cells/well in 10% FBS media constituted of DMEM (Invitrogen11960-069) supplemented with 10% FBS (Hyclone Labs SH30070.02), pen/strep (Life Technologies 15140-122), sodium pyruvate (Invitrogen 11360-070) and glutamax (Invitrogen 35050-061). Cells were then starved in 0.5% FBS for 24 h prior to treatment with 25% ShhN conditioned media in 0.5% FBS+/− drug treatment. GliΔN were treated 48 h post transfection. Unless otherwise stated, all treatments were performed for 6 h. Cell lysis and RNA extraction was performed using Qiashredder homogenizers (Qiagen 79654) and RNEasy mini kits (qiagen 74104) as per manufacturer's instructions. RNA was quantified on a nanodrop spectrophotometer (nanoddrop technologies ND-2000C). Transcript quantification was performed using a TaqMan RNA-to-Ct 1-Step Kit (Life technologies, 4392656) and the Applied Biosystems 7500 RT-PCR system as per the manufacturer's instructions. All primers were commercially available TaqMan® Gene Expression Assay probes purchased from Life Technologies (csnk2a1: Mm00786779_s1, csnk2a2: Mm01243455_m1, csnk2b: Mm00487216_m1, Gli1: Mm00494654_m1, Gli2: Mm.273292, Ccnd1: Mm.273049, Ptch: Mm00436047_m1).

[2] = test system: Gli2 binding at Gli target genes in GNPs; assay: H3K27ac and Gli2 Chipseq in GNPs purified from TBB-injected P7 mice; type: in vivo, mouse; details: two injections of TBB (30 mg/kg) over 18 h
Procedure: Brd4 occupancy at both Gli1 and Gli2 promoters was blocked by the addition of TBB (FIG. 3e). Given that Brd4's primary role as a reader of H3K27ac histone modifications, whether the effect of TBB on Gli target genes correlated with H3K27ac in GNP on a genome-wide scale was next examined. GNPs were purified from P7 mice following two injections of TBB over an 18 h period. Chipseq using H3K27ac and Gli2 antibodies were performed and Gli target genes were binned into either ‘high’ or low H3K27ac′ groups. […] For example, Gli1 had low H3K27ac in GNPs but high H3K27ac in NIH 3T3's. In contrast, Gli2 and Ptch both had high H3K27ac marks in both GNPs and NIH 3T3's.
Wildtype CD1-Elite (Charles River strain 482) P7 mice were randomized to control or treatment groups then given two injections of DMSO (control) or TBB (30 mg/kg) q12h×2. Mice were sacrificed and GNPs were isolated as described in “GNP isolation”. Chomatin immunoprecipitation was performed as previously described. GNPs were cross-linked in 1% formaldehyde for 10 minutes at RT then fixation was stopped by adding 2.5M glycine for 10 minutes. […] ChIP and input DNA was quantified using Qubit DS DNA HS assay as per manufacturer's protocol (ThermoFisher Q32851). […] Library was quantified via Qubit DS DNA HS assay and library quality was determined using an Agilent 2100 Bioanalyzer. […]

[3] = test system: Ptch+/−; Tpr53−/−; SmoD477G MB flank allografts; assay: Flank allograft study, SMO inhibitor-resistant MB; type: in vivo, mouse
Procedure: In vivo efficacy studies were performed in accordance with protocols approved by the Institutional Animal Care and Use Committee at Stanford University. SmoWT-MB and Smo[…]-MB cells isolated from either parental SmoWT or Smo[…] mouse Ptch^+/-; p53^-/- MB hind-flank allografts were kindly provided by Charles Rudin (Memorial Sloan-Kettering Cancer Center). Ptch+/-; Tpr53-/-, or, Ptch+/-; Tpr53-/-; Smo[…] MB cells were mixed 1:1 with matrigel and 10^7 cells were injected into both flanks of a Nu/Nu mouse. Once tumors reached 225-275 mm^3, mice were randomized to treatment vs. control groups. Treatment groups received 30 mg/kg IP BID of TBB (reconstituted in DMSO at 50 ug/uL), or 37.5 mg/kg IP BID of GDC-0449 (reconstituted in DMSO at 62.5 ug/uL). Control mice were treated with an equivalent volume of DMSO. Corn oil was used in all groups to a total volume of 180 uL/injection and all doses were given with a 28 g insulin syringe. Tumors were measured and mice were weighed daily. Once tumors reached 1.5 cm^2 or met institutional euthanasia criteria, mice were sacrificed and tumors were harvested. Growth curves were generated using GraphPad Prism and significance was measured by two-way ANOVA.

[4] = NIH 3T3's following Hh stimulation

Question: Which results are given for `Brc1c(Br)c(Br)c2[nH]nnc2c1Br` [TBB, 4,5,6,7-tetrabromo-2H-benzotriazole]?
Answer: Gli2 transcript levels [1, 4]: effective at decreasing; Ptch transcript levels [1, 4]: effective at decreasing; Gli1 mRNA levels ([1]; SHH ligand-induced NIH 3T3 cells, as early as 4 h post exposure): inhibited; also recorded: dramatic decrease; also recorded: loss of Gli1 induction; Gli binding at 'high' H3K27ac marked Gli target genes compared to low H3K27ac marked genes [2]: statistically significant decrease; tumor growth of SmoD477G MB flank allografts ([3]; TBB 30 mg/kg IP BID or GDC-0449 37.5 mg/kg IP BID vs vehicle control): near-complete cessation of tumor growth; also recorded: significant response; BrdU incorporation in flank allografts ([3]; following TBB administration, relative to GDC-0449 and control treated mouse): Decreased
